Test results: PubChem BioAssay (NCI)
Values joined by “and” are separate entries in the source; they are usually repeats but may differ in a detail not shown here. Equal values may be shown once.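 The compound was tested at five concentrations on cells cultured in 96-well plates, with a 48-hour exposure period. GI50: concentration for 50% inhibition of growth. Definition used: TGI = concentration required for complete inhibition of growth.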

Columns and labels:
Test in all cases: NCI tumour cell line growth inhibition, 48 h
HOP-62 NSCLC = tested on: HOP-62 NSCLC
HOP-92 NSCLC = tested on: HOP-92 NSCLC
OVCAR-8 ovarian = tested on: OVCAR-8 ovarian
MDA-N = tested on: MDA-N
RXF 393 renal = tested on: RXF 393 renal
IGROV1 ovarian = tested on: IGROV1 ovarian
EKVX NSCLC = tested on: EKVX NSCLC
HCT-15 colon = tested on: HCT-15 colon
NCI-H460 lung = tested on: NCI-H460 lung
SW-620 colon = tested on: SW-620 colon

Structure (SMILES)	TGI (HOP-62 NSCLC) [µM]	TGI (HOP-92 NSCLC) [µM]	TGI (OVCAR-8 ovarian)	TGI (MDA-N) [µM]	TGI (RXF 393 renal)	TGI (IGROV1 ovarian) [µM]	TGI (EKVX NSCLC)	TGI (HCT-15 colon)	TGI (NCI-H460 lung) [µM]	TGI (SW-620 colon)	GI50 (OVCAR-8 ovarian) [µM]	GI50 (RXF 393 renal)	GI50 (EKVX NSCLC)	GI50 (HCT-15 colon)	GI50 (NCI-H460 lung)	GI50 (SW-620 colon) [µM]
CC1(C)C2CC1C(/C=N\OCC(=O)O)=CC2=O (stereo unspecified)	> 100	> 100	> 100 µM	> 100	> 100 µM	> 100	> 100 µM	> 100 µM	> 100	> 100 µM	–	–	–	–	–	–
O=c1[nH]nc(Cc2ccccc2)n1N=C1CCCCC1	> 100	> 100	> 100 µM	> 100	> 100 µM	> 100	> 100 µM	> 100 µM	> 100	> 100 µM	–	–	–	–	–	–
CCCCCCCCCCCCOCCCCCCCCC/C=C/c1ccc2c(c1)OCCOCCOCCOCCO2	51.4	26.5	25.5 µM	36.2	36.4 µM	50.6	61.6 µM	> 100 µM	37.9	> 100 µM	–	–	–	–	–	–
CN(C(=O)C12C3C4C1C1C2C3C41C(=O)O)C(C)(C)C (stereo unspecified)	> 100	> 100	> 100 µM	> 100	> 100 µM	> 100	> 100 µM	> 100 µM	> 100	> 100 µM	–	–	–	–	–	–
COC(=O)/C=C/COCC1C2CCC(=O)C21 (stereo unspecified)	> 100	> 100	> 100 µM	> 100	> 100 µM	> 100	> 100 µM	> 100 µM	> 100	> 100 µM	–	–	–	–	–	–
CN(O)C(=O)c1ccc(OCc2cccc(Cl)c2)cc1	> 100	> 100	> 95.9 µM	> 100	> 100 µM	> 100	> 100 µM	> 100 µM	> 100	> 100 µM	–	–	–	–	–	–
Cc1cc2c(c(C=Nc3ccc(N(C)C)cc3)c1)OC1(C=C2)Oc2ccccc2C(=O)N1C (stereo unspecified)	> 67.5	44.8	42.9 µM	28.1	> 58 µM	27.1	27.1 µM	27.6 µM	36.5	35.6 µM	–	–	–	–	–	–
O=C(c1c(F)c(F)c(F)c(F)c1F)n1c(=O)[nH]c2ccccc21	31.6	11.4	27 µM	20.5	22 µM	24.2	29.3 µM	15.6 µM	27.2	16.1 µM	–	–	–	–	–	–
O=S(=O)(O)c1ccc(N=Nc2c(O)ccc3ccccc23)cc1	> 100	> 100	> 100 µM	> 100	> 100 µM	> 100	> 100 µM	> 100 µM	> 100	> 100 µM	–	–	–	–	–	–
COc1nc(N)nc2c1n(C)c[n+]2C	> 100	> 100	> 100 µM	> 100	> 100 µM	> 100	> 100 µM	> 100 µM	> 100	> 100 µM	–	–	–	–	–	–
CC(C)/C(Cl)=N/OC(NC(=O)Nc1ccc(Cl)c(Cl)c1)(C(F)(F)F)C(F)(F)F	42.5	29.7	34.8 µM	32.3	9.23 µM	35.2	38.1 µM	28.9 µM	56.4	3.92 µM	–	–	–	–	–	–
CN(C)c1ccc(/C=C(\NC(=O)c2ccccc2)c2nc3ccccc3c(=O)o2)cc1	> 100	> 100	> 100 µM	> 100	> 100 µM	> 100	> 100 µM	> 100 µM	> 100	> 100 µM	–	–	–	–	–	–
CC(=O)O[C@H]1CC[C@@]2(C)C(=CC[C@H]3[C@@H]4C[C@H](N5CCN(C)CC5)[C@H](OC(C)=O)[C@@]4(C)CC[C@@H]32)C1	52.6	92.7	30.5 µM	26.5	40.3 µM	37.9	59.9 µM	26.6 µM	49.4	29.8 µM	–	–	–	–	–	–
CCOC(=O)NC(Nc1cccc(F)c1)(C(F)(F)F)C(F)(F)F	> 100	> 100	> 100 µM	> 100	> 100 µM	> 100	> 100 µM	> 100 µM	> 100	> 100 µM	–	–	–	–	–	–
COC(=O)C1=C(C(=O)OC)C2(c3ccccc3)c3ccccc3C(=O)C1N2C1CCCCC1 (stereo unspecified)	> 100	> 100	> 100 µM	> 100	> 89 µM	> 100	> 100 µM	> 100 µM	> 100	> 100 µM	–	–	–	–	–	–
CNc1nc2c(C)ccc3nc(N(C)C)nc-3c2n1C	> 10	> 10	> 10 µM	> 10	> 10 µM	> 10	> 10 µM	> 10 µM	> 10	> 10 µM	–	–	–	–	–	–
COC(=O)C1C(O)C(C)C(O)C(C)/C=C\C=C(C)C(=O)Nc2c(C)c(OC(C)=O)c3c(c2O)C(=O)C(C)=C2OCOC(=C23)C(C)=CC(C)(O)C(O)C(C)C1O (stereo unspecified)	> 100	> 100	47 µM and > 100 µM	> 100	51.9 µM and > 100 µM	> 100	73.7 µM and > 100 µM	50.8 µM and > 100 µM	> 100	39.6 µM and > 100 µM	23.6	20.9 µM and > 100 µM	48 µM and > 100 µM	19.4 µM and > 100 µM	20.5 µM and > 100 µM	20.1
CCOC(=O)c1nc2cc(F)c(F)cc2nc1NCc1cc(OC)c(OC)c(OC)c1	> 100	> 100	> 100 µM	> 100	> 100 µM	> 100	> 100 µM	> 100 µM	> 100	> 100 µM	–	–	–	–	–	–
COc1ccc(/C=C/C(=O)c2cccc(C(=O)/C=C/c3ccc(OC)c(OC)c3)n2)cc1OC	> 100	> 100	18.3 µM	34.8	> 86.1 µM	> 95.5	> 100 µM	55 µM	> 100	15.9 µM	–	–	–	–	–	–
